“Also recorded” adds a separate entry of the source.
Key:
[1] = system: fruit flies; test: Comparison of erythritol with other sweet alcohols, fly longevity; format: in vivo, Drosophila melanogaster; details: 1 M in standard fly food, 17 days
Description: An experiment was conducted to compare the effectiveness of erythritol with other human-safe sweet alcohols: D-mannitol, maltitol, sucrose, and xylitol. The concentration of all sweet alcohols were 1M.
Flies were raised for 17 days on standard fly food that contained 1 M concentrations of each sweetener treatment. Death of flies was recorded daily as before; each treatment was replicated on three vials of 10 flies each for 30 subjects/treatment. Differences in longevity were analyzed using the Kaplan-Meier survival analysis log rank test, making all pairwise comparisons among treatments.

[2] = system: Drosophila melanogaster; test: Drosophila longevity assay on food containing sweeteners; format: in vivo; details: repeat with blue food, 0.0238 g/ml
Description: All animals were cultured at 25° C., kept at 50-60% humidity, and were raised under a standard 12:12 light dark cycle. For each experimental treatment, n=30 flies were tested in groups of 10 per tube, and three tubes per treatment. Tubes were kept on their side to minimize subject becoming mired in the food. Foods were replaced twice a week. The total number of fruit flies used for these experiments was 780, with 300 used for two initial trials testing mortality among store-brand sweeteners, 210 used for repeating this with blue dye and pure erythritol, 120 for choice trials and 150 for concentration trials.
Standard Drosophila food for larval culturing consisted of water, cornmeal, yeast, molasses, and agar, as previously described (Chakraborty, et al., 2011, PLoS ONE 6: e20799). […] The addition of cornmeal and yeast assured the flies still received sufficient carbohydrates and protein in addition to any effects of the treatment additives.
Drosophila food was combined with an equal weight/volume (0.0238 g/ml) of one non-nutritive sweetener (TRUVIA, EQUAL, SPLENDA, SWEET'NLOW, or PUREVIA) or a control nutritive sweetener (controls: sucrose or corn syrup). Wild type (Canton S) larvae were initially raised on the standard food, and 0-12 hour old adult flies were transferred to foods containing one non-nutritive sweetener or a control treatment. […] The number of dead flies were scored daily.

[3] = system: Drosophila melanogaster; test: Erythritol concentration trials on fly longevity; format: in vivo
Description: Standard fly foods were prepared as previously described, and then were treated with 2M, 1M, 0.5M and 0.1M concentrations of erythritol, using 0.5M sucrose as control. 0 to 24 hour-old Drosophila were placed on these foods and mortality was recorded daily for 35 days as above. Analyses were conducted with SPSS software v. 20 (IBM corporation 2011). Fly longevity data were analyzed using survival analysis with right-hand censoring of subjects that lived to the end of the study or were lost for reasons other than death. Test were run for differences in survival distributions [Pr(flies alive) versus insect age] using the log-rank (Mantel-Cox) test to make all pairwise comparisons among treatments within each experiment.

[4] = system: Drosophila melanogaster; test: Two-way choice experiments, fly longevity; format: in vivo
Description: Foods containing 2 M erythritol, 1M erythritol and 1M sucrose were prepared for paired presentations in open choice tests. In each treatment one food type contained 0.05% brilliant blue FCF (Fisher 50-727-25). The blue dye allowed visual confirmation of feeding on the dyed food in the pair. The flies were presented with access to two food choices by using a modified cotton stopper with approximately a 1.5 cm diameter hole to connect each pair of food tubes.
The final choice treatment was between blue 2M erythritol food and non-blue 1M sucrose food (this treatment provides a comparison with the 1M erythritol/1M erythritol treatment as a test of dilution of toxicity by alternative food sources; blue guts would confirm erythritol was being consumed in the presence of sucrose). The number of flies with visible blue gut contents and mortality daily were recorded for 30 days.
Analyses were conducted with SPSS software v. 20 (IBM corporation 2011). Fly longevity data were analyzed using survival analysis with right-hand censoring of subjects that lived to the end of the study or were lost for reasons other than death. Test were run for differences in survival distributions [Pr(flies alive) versus insect age] using the log-rank (Mantel-Cox) test to make all pairwise comparisons among treatments within each experiment.

[5] = system: R. flavipes workers; test: Termite survival experiment on erythritol-treated paper; format: in vivo, Reticulitermes flavipes
Description: Termites used in the survival and choice experiments were collected from three field colonies in Scotland Run Park (39.66° N, 75.05° W) in Clayton, NJ between April and May 2019. After collection, colonies were maintained in plastic containers with soil and wood from the collection site as a substrate in laboratory conditions (20.8±0.9° C., 49±7% RH). Termites used in the consumption experiment were collected from a single field colony at Cobb's Creek Park (39.94° N, 75.24° W) in Philadelphia, PA during September of 2018. Workers were removed from the log and housed within 24 h of collection in 9 cm diameter petri dishes containing damp paper towel as a food source. Dishes were placed in an incubator at 26° C. (relative humidity varied between 40 and 60% across trials, but was consistent among all treatments within each trial). Each petri dish contained 10 workers. Termites used in all experiments measured 3-4 mm in length.
For the survival experiment, unbleached, brown paper towels (12 cmx 24 cm, cat no. 01801, Kimberly-Clark Corporation, Neenah, WI), were completely submerged for 15 s in solution of distilled water, erythritol (100% purity, NOW foods, Bloomingdale, IL) of the below-specified concentrations, and 0.05% Brilliant Blue R-250 dye (cat. no 27816, Sigma-Aldrich, St. Louis, MO). The erythritol concentrations used were: 0 M (control), 0.25 M, 0.5 M, 0.75 M, 1.0 M, and 1.25 M. The treated paper towels were removed from solution and allowed to dry horizontally on racks before being cut into squares with an area of 144 cm^2. […]
Following the pretrial period, the experiment was set up: pretrial paper towels were removed and replaced with treated paper towels of the correct erythritol treatment concentration; these were rehydrated with 750 μL of distilled water. […] Termite mortality was recorded every 24 h for 8 d.
Analyses were performed using SPSS v. […] Mean percent mortality was calculated for each concentration across colonies at 72 and 96 h and a three parameter, best-fit sigmoid curve was fitted to the data in Sigmaplot to assess LC at these time points.

[6] = system: fruit flies; details: 0.5 M erythritol food, previous work; cited from earlier work
[7] = humans, even in high concentrations; cited from earlier work

OC[C@@H](O)[C@@H](O)[C@H](O)[C@H](O)CO [D-mannitol]
fly longevity / insecticidal effect compared to sucrose control [1]: did not differ from sugar control; also recorded: slightly but significantly reduced longevity; also recorded: almost insignificant insecticidal effect

OC[C@@H](O)[C@H](O)[C@@H](O)CO [xylitol]
fly longevity / insecticidal effect compared to sucrose control [1]: did not differ from sugar control; also recorded: did not differ from the control; also recorded: not effective at reducing fly longevity

OC[C@@H](O)[C@@H](O)CO [erythritol, (2R,3S)-butane-1,2,3,4-tetraol]
longevity compared to PUREVIA, EQUAL, sucrose and corn syrup (FIG. 3) [2]: significant decrease in longevity | longevity compared to control food containing 0.5M sucrose ([3]; 0.1M in food, 35 days): no significant difference in longevity | dose response of fly longevity (FIG. 4) ([3]; 0.1M, 0.5M, 1.0M and 2.0M in food): significant decrease in longevity of adult flies as concentration of erythritol was increased; also recorded: dose-dependent reduction in longevity | longevity compared to control food containing 0.5M sucrose ([3]; 0.5M in food, 35 days): significant reductions in longevity | longevity compared to control food containing 0.5M sucrose ([3]; 1M in food, 35 days): significant reductions in longevity | longevity compared to all other treatments ([3]; 2M in food, 35 days): significant and severe effect on longevity | longevity relative to sucrose:sucrose choice (FIG. 5) ([4]; choice between 1M sucrose and 1M erythritol): significant decrease in longevity; also recorded: significantly decreased longevity | longevity relative to sucrose:sucrose choice (FIG. 5) ([4]; choice between 1M sucrose and 2M erythritol): significant decrease in longevity; also recorded: significantly reduced | fly longevity / insecticidal effect compared to sucrose control [1]: toxic to fruit flies upon ingestion | mean fly longevity [1]: 4.7 ± 0.15 days | longevity of workers to 8 d, erythritol treatments versus 0M control (FIG. 9) ([5]; 0.25-1.25 M treated paper, 8 d): All treatments are significantly different from 0 M; also recorded: differed significantly | lowest concentration with significant effects on longevity ([5]; R. flavipes workers, 8 d): 0.25 M | time to 50% mortality ([5]; termites, 0.5 M erythritol filter papers): ≤ 2 days | time to 50% mortality [6]: 20 days | safety of consumption [7]: safe to humans

OC[C@@H](O)[C@@H](O[C@H]1O[C@H](CO)[C@@H](O)[C@H](O)[C@H]1O)[C@H](O)[C@@H](O)CO [maltitol]
fly longevity / insecticidal effect compared to sucrose control [1]: did not differ from sugar control; also recorded: did not differ from the control; also recorded: not effective at reducing fly longevity

— patent US12059000B1, “Use of erythritol compositions as mammal-safe insecticides” (Drexel University, priority 2020, dated 2024)
